Assay results: patent US20260193180A1, “AUTOPHAGY INDUCING COMPOUNDS AND USES THEREOF” (SAMSARA THERAPEUTICS INC., priority 2022, published 2026)
Where a name gives a salt, the structure may show the parent alone.

The compounds below were run on U2OS cell line stabling expressing RFP-eGFP-hLC3b (assay: Tandem reporter assay (autophagic flux), RFP-only puncta (autolysosomes)). Details: Homo sapiens, 0.5 μM, average of two runs, read-out: Activity (Autolysosome % DMSO activity).
Assay type: cell-based
Description: Selected compounds of this invention were also assessed for their ability to stimulate autophagy using a U2OS cell line stabling expressing RFP-eGFP-hLC3b (a tandem reporter cell line). This assay is further described in WO 2023/089074.
LC3b is a protein found in the membrane of autophagosomes which has been used to generate genetic reporters of autophagy in cells. In these systems a tandem fusion of LC3b is engineered with two fluorescent proteins of different wavelengths: one which is acid sensitive (for example eGFP, which fluoresces green) and the other which is acid insensitive (for example RFP, which fluoresces red). Cells expressing RFP-eGFP-hLC3b can be examined using fluorescent microscopy: the autophagosomes present will fluoresce in both channels (either yellow in an overlay of both channels or puncta that are present in both the individual red and green channels) but the autolysosomes present will fluoresce in the RFP (red) channel only. Using a fluorescent microscope, the number of autophagosomes and autolysosomes can be counted, allowing for the monitoring of both the induction of autophagy (total puncta count) and the rate of autophagic flux (ratio of red-only to red-and-green puncta). The influence of small molecules on autophagy induction and flux can be assessed using this system by comparison to a non-treated control.
Representative Procedure: Human osteosarcoma U20S cells stably expressing RFP-eGFP-hLC3b were seeded (10,000 cells/well) into a 96-well glass-bottom plate (Cell Carrier Ultra, Perkin Elmer) in DMEM Glutamax media (Gibco) supplemented with 10% Fetal Bovine Serum (FBS) and antibiotics (100 μg/ml penicillin, 100 μg/ml streptomycin, Invitrogen), then incubated overnight in a humified atmosphere at 37° C. and 5% CO2. The cells were then treated with the compounds of interest, dissolved in DMSO, in a duplicated 5- or 10-point dose-response. 8 wells were treated with an equivalent volume of DMSO, 4 with 0.3 μM torin-1 as a positive control (MCE) and 4 wells with 0.4 μM torin-1 plus 0.2 μM bafilomycin (MCE) as a control for flux inhibition. The cells were returned to the incubator and the treatment continued for 24 hours. After treatment, the media was aspirated off and the cells fixed with a solution of 4% formaldehyde+1% glutaraldehyde (Sigma) in dPBS (plus magnesium and calcium, Gibco). Fixation was allowed to proceed for 15 minutes at room temperature then the fixative solution discarded and replaced with PBS (Gibco) plus Hoescht 33342 (1 μg/ml, Sigma). After 30 minutes the plates were imaged on an Opera Phenix confocal microscope (Perkin-Elmer) using a 40× water objective, collecting using DAPI, mCherry and GFP channels. Cells were detected based upon the staining of their nuclei with DAPI using the Harmony image analysis software (Perkin-Elmer) and the number of autophagosomes (GFP and RFP puncta) and autolysosomes (RFP only puncta) per cell were counted using the spot picking function within the software.
In the case of COCCOc1c(Cl)cc(CCN2CCC[C@H](N)C2)cc1Cl [Compound 72, (S)-1-(3,5-dichloro-4-(2-methoxyethoxy)phenethyl)piperidin-3-amine hydrochloride], the activity at 0.5 µM is reported as 150 to 200%.
COCCOc1c(Cl)cc(CCN2CCC[C@@H](N)C2)cc1Cl [Compound 76, (R)-1-(3,5-dichloro-4-(2-methoxyethoxy)phenethyl)piperidin-3-amine hydrochloride] gave an activity at 0.5 µM of 150 to 200%.
CCOc1ccc(CN2CCC[C@H](N)C2)cc1Cl [Compound 92, (S)-1-[(3-chloro-4-ethoxyphenyl)methyl]-3-piperidylamine hydrochloride] gave an activity at 0.5 µM of 150 to 200%.

Same assay, conditions: Homo sapiens, 0.75 μM, one run, read-out: Activity (Autolysosome % DMSO activity)
Work on CCOc1c(Cl)cc(CN2CC[C@@H](CN)C2)cc1Cl [Compound 70, (S)-(1-(3,5-dichloro-4-ethoxybenzyl)pyrrolidin-3-yl)methanamine hydrochloride] yielded an activity at 0.75 µM of 150 to 200%.

Same assay, conditions: Homo sapiens, 0.833 μM, average of two runs, read-out: Activity (Autolysosome % DMSO activity)
CCOc1ccc(CCN2CCC(N)CC2)cc1Cl [Compound 71, 1-(3-chloro-4-ethoxyphenethyl)piperidin-4-amine hydrochloride] gave an activity at 0.833 µM of 150 to 200%.

Same assay, conditions: Homo sapiens, 1.25 μM, average of two runs, read-out: Activity (Autolysosome % DMSO activity)
N[C@@H]1CCN(Cc2cc(Cl)c(OCC3CC3)c(Cl)c2)C1 [Compound 73, (R)-1-(3,5-dichloro-4-(cyclopropylmethoxy)benzyl)pyrrolidin-3-amine hydrochloride] was tested, and the activity at 1.25 µM was 250 to 300%.
With N[C@H]1CCCN(CCc2cc(Cl)c(OCC3CC3)c(Cl)c2)C1 [Compound 74, (S)-1-(3,5-dichloro-4-(cyclopropylmethoxy)phenethyl)piperidin-3-amine hydrochloride] the activity at 1.25 µM was over 300%.
In the case of CCOc1ccc(CN2CCC(N)CC2)cc1Cl [Compound 75, 1-(3-chloro-4-ethoxybenzyl)piperidin-4-amine hydrochloride], the activity at 1.25 µM is reported as 200 to 250%.
Compound N[C@H]1CCN(Cc2cc(Cl)c(OCC3CC3)c(Cl)c2)C1 [Compound 77, (S)-1-(3,5-dichloro-4-(cyclopropylmethoxy)benzyl)pyrrolidin-3-amine hydrochloride] has an activity at 1.25 µM of 250 to 300%.
For N[C@@H]1CCCN(CCc2cc(Cl)c(OCC3CC3)c(Cl)c2)C1 [Compound 78, (R)-1-(3,5-dichloro-4-(cyclopropylmethoxy)phenethyl)piperidin-3-amine hydrochloride], the activity at 1.25 µM was 200 to 250%.
N[C@H]1CCCN(CCc2ccc(OCC3CC3)c(Cl)c2)C1 [Compound 79, (S)-1-(3-chloro-4-(cyclopropylmethoxy)phenethyl)piperidin-3-amine formate salt] showed an activity at 1.25 µM of 250 to 300%.
N[C@@H]1CCCN(CCc2ccc(OCC3CC3)c(Cl)c2)C1 [Compound 80, (R)-1-(3-chloro-4-(cyclopropylmethoxy)phenethyl)piperidin-3-amine formate salt] was tested, and the activity at 1.25 µM was 250 to 300%.
With NC1CCN(Cc2ccc(OCC3CC3)c(Cl)c2)CC1 [Compound 81, 1-(3-chloro-4-(cyclopropylmethoxy)benzyl)piperidin-4-amine hydrochloride] the activity at 1.25 µM was 150 to 200%.
CCOc1ccc(C#N)cc1CCN1CCC[C@H](N)C1 [Compound 83, (S)-3-(2-(3-aminopiperidin-1-yl)ethyl)-4-ethoxybenzonitrile hydrochloride] was tested, and the activity at 1.25 µM was 200 to 250%.
With CCOc1ccc(C#N)cc1CCN1CCC[C@@H](N)C1 [Compound 84, (R)-3-(2-(3-aminopiperidin-1-yl)ethyl)-4-ethoxy benzonitrile hydrochloride] the activity at 1.25 µM was 200 to 250%.
For CCOc1ccc(C#N)cc1CCN1CC[C@H](N)C1 [Compound 86, (S)-3-(2-(3-aminopyrrolidin-1-yl)ethyl)-4-ethoxy benzonitrile hydrochloride], the activity at 1.25 µM was 150 to 200%.
For CCOc1ccc(C#N)cc1CCN1CC[C@@H](N)C1 [Compound 87, 3-{2-[(R)-3-amino-1-pyrrolidinyl]ethyl}-4-ethoxybenzonitrile hydrochloride], the activity at 1.25 µM was 150 to 200%.
For CCOc1ccc(CCN2CC[C@@H](N)C2)cc1F [Compound 88, (R)-1-[2-(4-ethoxy-3-fluorophenyl)ethyl]-3-pyrrolidinylamine hydrochloride], the activity at 1.25 µM was 150 to 200%.
In the case of COCCOc1ccc(CCN2CCC[C@@H](N)C2)cc1Cl [Compound 89, (R)-1-{2-[3-chloro-4-(2-methoxyethoxy)phenyl]ethyl}-3-piperidylamine hydrochloride], the activity at 1.25 µM is reported as 150 to 200%.
With CCOc1c(Cl)cc(CN2CCC(N)CC2)cc1Cl [Compound 90, 1-[(3,5-Dichloro-4-ethoxyphenyl)methyl]-4-piperidylamine hydrochloride] the activity at 1.25 µM was 200 to 250%.
CCOc1ccc(CN2CCC[C@@H](N)C2)cc1Cl [Compound 93, (R)-1-[(3-chloro-4-ethoxyphenyl)methyl]-3-piperidylamine hydrochloride] showed an activity at 1.25 µM of 150 to 200%.
With COCCOc1c(Cl)cc(CN2CCC(N)CC2)cc1Cl [Compound 94, 1-{[3,5-dichloro-4-(2-methoxyethoxy)phenyl]methyl}-4-piperidylamine hydrochloride] the activity at 1.25 µM was 150 to 200%.
For COCCOc1ccc(CN2CCC(N)CC2)cc1Cl [Compound 95, 1-{[3-chloro-4-(2-methoxyethoxy)phenyl]methyl}-4-piperidylamine hydrochloride], the activity at 1.25 µM was 200 to 250%.
In the case of N[C@H]1CCCN(Cc2cc(Cl)c(OCC3CC3)c(Cl)c2)C1 [Compound 96, (S)-1-{[3,5-dichloro-4-(cyclopropylmethoxy)phenyl]methyl}-3-piperidylamine hydrochloride], the activity at 1.25 µM is reported as 200 to 250%.
Work on N[C@@H]1CCCN(Cc2cc(Cl)c(OCC3CC3)c(Cl)c2)C1 [Compound 97, (R)-1-{[3,5-dichloro-4-(cyclopropylmethoxy)phenyl]methyl}-3-piperidylamine hydrochloride] yielded an activity at 1.25 µM of 150 to 200%.
Compound NC1CCN(Cc2cc(Cl)c(OCC3CC3)c(Cl)c2)CC1 [Compound 98, 1-{[3,5-dichloro-4-(cyclopropylmethoxy)phenyl]methyl}-4-piperidylamine hydrochloride] has an activity at 1.25 µM of 150 to 200%.
Work on N[C@@H]1CCN(CCc2ccc(OCC3CC3)c(Cl)c2)C1 [Compound 99, (R)-1-{2-[3-chloro-4-(cyclopropylmethoxy)phenyl]ethyl}-3-pyrrolidinylamine hydrochloride] yielded an activity at 1.25 µM of 150 to 200%.
For N[C@H]1CCN(CCc2ccc(OCC3CC3)c(Cl)c2)C1 [Compound 100, (S)-1-{2-[3-chloro-4-(cyclopropylmethoxy)phenyl]ethyl}-3-pyrrolidinylamine hydrochloride], the activity at 1.25 µM was 150 to 200%.

Same assay, conditions: Homo sapiens, 1.25 μM, one run, read-out: Activity (Autolysosome % DMSO activity)
Work on CCOc1c(Cl)cc(CN2CC[C@H](CN)C2)cc1C#N [Compound 82, (R)-5-((3-(aminomethyl)pyrrolidin-1-yl)methyl)-3-chloro-2-ethoxybenzonitrile hydrochloride] yielded an activity at 1.25 µM of 150 to 200%.
CCOc1ccc(CCN2CC[C@H](N)C2)cc1C#N [Compound 85, (S)-5-(2-(3-aminopyrrolidin-1-yl)ethyl)-2-ethoxybenzonitrile hydrochloride] showed an activity at 1.25 µM of 150 to 200%.
NC1CCN(CCc2cc(Cl)c(OCC3CC3)c(Cl)c2)CC1 [Compound 91, 1-{2-[3,5-Dichloro-4-(cyclopropylmethoxy)phenyl]ethyl}-4-piperidylamine hydrochloride] gave an activity at 1.25 µM of 150 to 200%.
